Results published in patent US20040023295A1, “Methods and systems for analyzing complex biological systems” (priority 2001, published 2004).

Test system: Saccharomyces cerevisiae wild type strain BY4743
Assay: AF1 combined gene expression and metabolite data mapped to KEGG reactions and pathways
Format: cell-based
From the text: In AF1, two different technologies were utilized: gene expression analysis (for examination of mRNA expression) and metabolite analysis. […] As noted previously, existing metabolic databases may be helpful in practicing the methods and systems of the present invention, but many databases include limitations that make their use in data analysis and pathway mapping less than straightforward. […] This caveat to KEGG makes it difficult to pinpoint the correct pathway when attempting to link a gene to a specific pathway. The pathway score indicates how meaningful the mapping is, or how likely it is to be correctly indicative of the pathway involved in the perturbation under examination. […] Degree of perturbation can be calculated, for example, based on a number of standard deviations from a norm, and included in an equation such as the one shown above, so that not only the number of pathways is taken into account, but also accounts for the amount of gene transcript or compound present as compared to a control. […] KEGG links 676 compounds measured in AF1 to a total of 92 pathways. Of the 676 compounds under consideration, 77 were detected in the AF1 samples. […]

C[C@@H]1[C@H](O)[C@@H](C)/C=C/C=C/C=C/C=C/C=C/C=C/C=C/[C@H](O[C@@H]2O[C@H](C)[C@@H](O)[C@H](N)[C@@H]2O)C[C@@H]2O[C@](O)(C[C@@H](O)C[C@@H](O)[C@H](O)CC[C@@H](O)C[C@@H](O)CC(=O)O[C@H]1C)C[C@H](O)[C@H]2C(=O)O [Amphoteracin B]
# Reactions (title: Number Of Pathways Having at Least One Enzyme and One Compound Perturbed): 37 | # Reactions Having an Enzyme and at Least One Compound Perturbed: 54
